Experimental data reported in US20040147562A1, “Methods of treating conditions associated with an EDG-1 receptor” (priority 2002, published 2004).
One block for each molecule: values may come before it.

How the values were obtained:
[1] = system: human Edg-1 receptors; assay: Intracellular calcium (FLIPR) assay, HTC cells expressing Edg-1; format: cell-based; conditions: Edg-1 relative to other Edg receptors
Procedure: The compounds were tested in HTC cells expressing human Edg-1 receptors. […] The compounds were tested in this recombinant system first, and subsequently tested in cell lines expressing Edg-1 (in addition to other Edg receptors).
[…] receptors such as Edg-1, couple to calcium effector pathways, and result in increases in intracellular calcium following receptor activation (An, 1998, J. Cell Biochem. Supp 30-31:147-157). This biological response lends itself to a very efficient, high-throughput screen using a Fluorescence Imaging Plate Reader (FLIPR; Molecular Devices, Sunnyvale, Calif.). The FLIPR system is a real-time, cell-based assay system with continuous fluorescence detection using a cooled CCD camera. The FLIPR system was used to develop an Edg-1 receptor screen. Rat hepatoma cells stably expressing Edg-1/3i3 chimera or Edg-1 and Gqi were plated on 384-well plates and loaded with a calcium dye loading kit (Molecular Devices, Sunnyvale, Calif.) for 1 hour at room temperature. Cells were then placed on the FLIPR^384 (Molecular Devices, Sunnyvale, Calif.) and excited by an argon laser at 488 nm. The data for the entire 384-well plate was updated every second. An integrated robotic pipettor allowed for simultaneous compound addition into each individual well in the plate.

[2] = molecular target: T1, Edg-3 (Homo sapiens, UniProt Q99500); assay: Intracellular calcium (FLIPR) assay, HTC cells expressing Edg-3; format: cell-based
T1 construct: expressed in transfected cells; host or cells: HTC rat hepatoma cells
T1 sequence (Q99500 whole entry): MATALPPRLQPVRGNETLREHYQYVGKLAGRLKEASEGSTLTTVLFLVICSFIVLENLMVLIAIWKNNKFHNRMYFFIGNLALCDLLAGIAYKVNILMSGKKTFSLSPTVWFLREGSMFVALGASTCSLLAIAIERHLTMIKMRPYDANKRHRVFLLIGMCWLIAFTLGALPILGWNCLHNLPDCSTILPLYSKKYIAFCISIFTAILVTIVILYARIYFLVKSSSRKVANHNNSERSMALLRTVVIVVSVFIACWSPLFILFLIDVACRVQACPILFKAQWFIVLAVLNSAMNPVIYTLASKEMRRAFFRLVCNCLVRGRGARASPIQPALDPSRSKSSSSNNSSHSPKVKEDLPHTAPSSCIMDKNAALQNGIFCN

[3] = molecular target: Edg-4 (Homo sapiens, UniProt Q9HBW0); assay: Intracellular calcium (FLIPR) assay, HTC cells expressing Edg-4; format: cell-based
Chain of Edg-4 (Q9HBW0 1-340 limits assumed): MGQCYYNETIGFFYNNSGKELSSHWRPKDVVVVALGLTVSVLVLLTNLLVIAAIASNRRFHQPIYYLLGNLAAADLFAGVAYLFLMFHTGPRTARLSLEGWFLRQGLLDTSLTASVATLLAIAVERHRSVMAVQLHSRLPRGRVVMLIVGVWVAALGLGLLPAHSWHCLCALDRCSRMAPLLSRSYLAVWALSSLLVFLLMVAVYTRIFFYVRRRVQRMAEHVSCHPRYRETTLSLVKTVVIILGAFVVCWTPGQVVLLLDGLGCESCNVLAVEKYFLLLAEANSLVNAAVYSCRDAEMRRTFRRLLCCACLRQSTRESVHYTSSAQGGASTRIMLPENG

[4] = molecular target: T2, Edg-5 (Homo sapiens, UniProt O95136); assay: Intracellular calcium (FLIPR) assay, HTC cells expressing Edg-5; format: cell-based
T2 construct: expressed in transfected cells; host or cells: HTC rat hepatoma cells
T2 sequence (O95136 whole entry): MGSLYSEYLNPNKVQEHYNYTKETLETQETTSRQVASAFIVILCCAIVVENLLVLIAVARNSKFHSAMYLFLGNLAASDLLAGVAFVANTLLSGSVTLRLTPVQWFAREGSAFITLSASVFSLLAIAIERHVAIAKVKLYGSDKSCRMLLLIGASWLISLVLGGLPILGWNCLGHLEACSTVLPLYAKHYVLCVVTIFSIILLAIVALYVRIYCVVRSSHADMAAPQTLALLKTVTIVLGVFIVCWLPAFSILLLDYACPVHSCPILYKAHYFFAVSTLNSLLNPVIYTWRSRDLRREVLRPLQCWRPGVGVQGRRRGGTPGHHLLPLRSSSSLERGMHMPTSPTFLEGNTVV

[5] = molecular target: T3, Edg-6 (Homo sapiens, UniProt O95977); assay: Intracellular calcium (FLIPR) assay, HTC cells expressing Edg-6; format: cell-based
T3 construct: expressed in transfected cells; host or cells: HTC rat hepatoma cells
T3 sequence (O95977 1-384): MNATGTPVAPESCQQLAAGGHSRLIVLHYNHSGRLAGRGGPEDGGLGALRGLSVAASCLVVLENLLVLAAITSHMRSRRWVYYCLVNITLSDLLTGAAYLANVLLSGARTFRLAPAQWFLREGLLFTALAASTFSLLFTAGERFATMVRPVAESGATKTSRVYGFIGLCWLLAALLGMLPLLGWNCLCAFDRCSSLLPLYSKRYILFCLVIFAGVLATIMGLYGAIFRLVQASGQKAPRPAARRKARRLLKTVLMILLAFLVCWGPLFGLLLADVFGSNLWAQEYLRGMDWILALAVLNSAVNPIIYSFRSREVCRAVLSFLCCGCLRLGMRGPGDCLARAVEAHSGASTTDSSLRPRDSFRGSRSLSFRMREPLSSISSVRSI

[6] = molecular target: T4, Edg-7 (Homo sapiens, UniProt Q9UBY5); assay: Intracellular calcium (FLIPR) assay, HTC cells expressing Edg-7; format: cell-based
T4 construct: expressed in transfected cells; host or cells: HTC rat hepatoma cells
T4 sequence (Q9UBY5 1-353): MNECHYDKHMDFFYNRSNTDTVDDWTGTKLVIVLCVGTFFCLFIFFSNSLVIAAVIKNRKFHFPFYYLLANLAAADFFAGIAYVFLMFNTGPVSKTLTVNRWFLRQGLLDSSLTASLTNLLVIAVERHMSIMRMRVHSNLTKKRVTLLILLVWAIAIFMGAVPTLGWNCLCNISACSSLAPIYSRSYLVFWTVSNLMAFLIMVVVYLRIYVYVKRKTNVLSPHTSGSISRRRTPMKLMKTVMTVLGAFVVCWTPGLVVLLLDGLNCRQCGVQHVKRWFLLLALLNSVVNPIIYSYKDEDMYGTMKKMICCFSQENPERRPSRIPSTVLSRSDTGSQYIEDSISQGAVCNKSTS

[7] = molecular target: T5, Edg-8 (Homo sapiens, UniProt Q9H228); assay: Intracellular calcium (FLIPR) assay, HTC cells expressing Edg-8; format: cell-based
T5 construct: expressed in transfected cells; host or cells: HTC rat hepatoma cells
T5 sequence (Q9H228 whole entry): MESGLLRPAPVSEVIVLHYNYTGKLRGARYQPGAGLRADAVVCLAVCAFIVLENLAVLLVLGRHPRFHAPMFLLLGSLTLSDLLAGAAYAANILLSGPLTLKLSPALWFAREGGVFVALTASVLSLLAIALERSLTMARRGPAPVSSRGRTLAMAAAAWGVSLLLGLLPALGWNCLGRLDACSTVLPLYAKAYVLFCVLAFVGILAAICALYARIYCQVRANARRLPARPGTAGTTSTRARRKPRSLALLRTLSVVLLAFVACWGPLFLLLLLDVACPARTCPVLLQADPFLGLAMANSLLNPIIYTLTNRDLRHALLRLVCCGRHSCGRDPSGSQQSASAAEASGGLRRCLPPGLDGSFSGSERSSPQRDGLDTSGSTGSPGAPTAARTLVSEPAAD

[8] = system: murine CD4 T cells; assay: Murine CD4 T cell chemotactic response to exodus-2; format: cell-based
Procedure: To assess this modulation and to test the effects of Edg-1 agonists and antagonists on this effect, murine CD4 T cells chemotactic responses to exodus-2 were tested in the presence of S1P and the Edg-1 agonist 104. These experiments were performed according to the migration and invasion assay protocols described in Section 7.12, below.
The effects of Edg-1 antagonists on S1P regulation of the chemotactic response to exodus-2 were also assessed. This experiment was performed according to the migration and invasion assay protocols described in Section 7.12, below. […] Thus, these Edg-1 antagonists can antagonize both aspects of the regulation by S1P of exodus-2-mediated chemotaxis.
Cells were plated in a 24 well format using Fluoroblok filter insert plates ([…] pore size) or Fluoroblok matrigel coated filter insert plates (Becton Dickinson, San Diego, Calif.). The assay was a modified Boyden Chamber assay in which a cell suspension (1×10^5 cells/ml) was prepared in serum free medium and added to the top chamber. LPA or S1P (doses ranged from 0.1-10 μM in serum free medium) was added to the bottom chamber. Following a 20-24 hour incubation period, the number of cells migrating or invading into the lower chamber was quantitated by transferring the filter insert into a fresh 24-well plate containing 4 μg/ml calcein AM (Molecular Probes, Sunnyvale, Calif.) in Hank's Balanced Salt Solution and staining for one hour.
Detection was via fluorescent readout at 450 nm excitation/530 nm emission using a fluorimeter. The level of fluorescence correlated with cell number.

[9] = system: mouse splenic CD4 T cells; assay: Lymphocyte migration in mouse dorsal air-pouch model; format: in vivo; conditions: lavage after 24 hours, FIG. 15
Procedure: To test migration of mouse T cells in vivo, the ability of exodus-2 to attract mouse lymphocytes was assessed in the mouse dorsal air-pouch model. In these experiments, 0.5 ml 1 μM exodus-2 was introduced into a dorsal air-pouch produced by injecting 5 ml of filtered air subcutaneously. Mouse splenic CD4 T cells were fluorescently labeled with FM-DiI (Molecular Probes, Inc., Eugene, Oreg.), then treated with S1P (1 μM), 102, or 104. The treated CD4T cells were introduced into the peritoneal cavity. After 24 hours, lavage (1 ml) from the dorsal air pouch was assayed for fluorescence.

[10] = concentrations as high as 20 μM
[11] = agonist, concentrations as high as 25 μM

IC50 ([2]; Table 2, S1P-stimulated): > 20 µM | inhibition of S1P-stimulated calcium increases in HTC cells expressing Edg-3 [2, 10]: did not inhibit | IC50 ([3]; Table 2, LPA-stimulated): > 20 µM | inhibition of LPA-stimulated calcium increases in HTC cells expressing Edg-4 [3, 10]: did not inhibit | IC50 ([4]; Table 2, S1P-stimulated): > 20 µM | inhibition of S1P-stimulated calcium increases in HTC cells expressing Edg-5 [4, 10]: did not inhibit | IC50 ([5]; Table 2, S1P-stimulated): > 20 µM | inhibition of S1P-stimulated calcium increases in HTC cells expressing Edg-6 [5, 10]: did not inhibit | IC50 ([6]; Table 2, LPA-stimulated): > 20 µM | inhibition of LPA-stimulated calcium increases in HTC cells expressing Edg-7 [6, 10]: did not inhibit | IC50 ([7]; Table 2, S1P-stimulated): > 20 µM | inhibition of S1P-stimulated calcium increases in HTC cells expressing Edg-8 [7, 10]: did not inhibit
Structure (SMILES): O=C(c1cccnc1)N1N=C(c2ccc(Br)cc2)CC1(O)C(F)(F)F (centres unmarked) [Compound 102]
Fold Selectivity ([1]; inhibition (Table 2)): >11.8 Fold | effect on S1P-mediated desensitization of the chemotactic response to exodus-2 ([8]; high concentrations of S1P, FIG. 12): reverse S1P-mediated desensitization | effect on S1P-mediated stimulation of the chemotactic response to exodus-2 ([8]; moderate concentrations of S1P, FIG. 12): inhibit S1P-mediated stimulation | reversal of S1P-mediated desensitization in dorsal air-pouch ([9]; co-treatment with S1P): can be reversed

EC50 ([2]; agonist): > 25 µM | calcium response in HTC cells expressing Edg-3 [2, 11]: did not elicit a calcium response | EC50 ([3]; agonist): > 25 µM | calcium response in HTC cells expressing Edg-4 [3, 11]: did not elicit a calcium response | EC50 ([4]; agonist): > 25 µM | calcium response in HTC cells expressing Edg-5 [4, 11]: did not elicit a calcium response | EC50 ([5]; agonist): > 25 µM | calcium response in HTC cells expressing Edg-6 [5, 11]: did not elicit a calcium response | EC50 ([6]; agonist): > 25 µM | calcium response in HTC cells expressing Edg-7 [6, 11]: did not elicit a calcium response | EC50 ([7]; agonist): > 25 µM | calcium response in HTC cells expressing Edg-8 [7, 11]: did not elicit a calcium response
Structure (SMILES): COc1cc(C(=O)c2cc(Cl)ccc2N)cc(OC)c1OC [Compound 104, (2-Amino-5-chlorophenyl)-(3,4,5-trimethoxyphenyl)methanone]
Fold Selectivity ([1]; agonist (Table 4)): >2.5 Fold | concentration needed relative to S1P for same effect on chemotactic response to exodus-2 ([8]; FIG. 11): higher concentrations of 104 than S1P are required | effect on chemotaxis of murine CD4 T cells to exodus-2 ([8]; low and high concentrations desensitize, moderate stimulate, FIG. 11): bell-shaped dose dependant response curve | migration of treated lymphocytes to exodus-2 in dorsal air-pouch ([9]; CD4 T cells treated ex vivo, given intraperitoneally, S1P 1 μM): desensitizes the lymphocytes to attraction by exodus-2
